In patent US20250367235A1, “SYSTEMS AND METHODS FOR MODULATING A CELL PHENOTYPE” (XCELL BIOSCIENCES, INC., priority 2019, published 2025):

System: PC-3, a prostate cancer cell line
Experiment: PBMC tumor cell killing co-culture with anti-PD-1 antibodies, cell viability by CellTiter Glo
Type: cell-based, human
Details: 1% O2, 2 PSI above ambient pressure vs ambient conditions; antibody 10 ug/ml; PBMCs with PC-3 at effector to target ratio 20:1; 5 days; average of 21 PBMC isolates; FIG. 2
Procedure: PBMCs were isolated from 21 healthy volunteers. The PBMCs were cultured together with target tumor cells, (PC-3, a prostate cancer cell line), at an effector to target ratio of 20:1. All cells were cultured in RPMI1640 medium supplemented with 10% fetal bovine serum over a 5 day period. PBMCs were not activated with IL-2. Cell viability was measured at the end of the 5 day period by CellTiter Glo Assay (Promega) with 3 or 4 technical replicates. Each of the 21 PBMC isolates, and target cells, was cultured under either ambient conditions, or hypoxic and hyperbaric conditions (1% O2, 2 PSI above ambient pressure), and with or without anti-PD-1 antibodies. The anti-PD-1 antibodies used were Nivolumab and Pembrolizumab (10 ug/ml). Average results across the 21 different PBMC isolates are shown in FIG. 2, with error bars representing the standard error of the mean, and p values were calculated using paired Student's t tests.

Nivolumab
effect of hypoxic and hyperbaric conditions on efficacy of treatment at activating PBMCs to kill tumor cells: did not have a noticeable effect

Pembrolizumab
effect of hypoxic and hyperbaric conditions on efficacy of treatment at activating PBMCs to kill tumor cells: more efficient at activating PBMCs to kill tumor cells
